What all share (assay): relative viability (nuclei count vs DMSO), 5 days (fraction); higher = more cells survive
Compound in experiment [1]: CC1=CC=C(C=C1)C(=O)CN2C3=C(CCCC3)SC2=N [Pifithrin_alpha] + O=C(CCCCCCC(=O)Nc1ccccc1)NO [Vorinostat] (partner 1 µM)
In short, it runs like this: (§1)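 Values are medians from duplicate plates. Each reflects relative viability, defined as the nuclei count of treated wells over that of vehicle wells. Lung cancer cell lines in 1536-well plates were pin-tool dosed one day after seeding with one drug alone or with a fixed anchor-drug dose plus five library-drug doses (not always all listed) in √10 steps, then fixed, stained and imaged at 4× after 5 days.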

Compound in experiment [2]: CNC(=O)c1ccccc1Sc1ccc2c(/C=C/c3ccccn3)n[nH]c2c1 [Axitinib] + CC(C)C[C@H](NC(=O)[C@H](Cc1ccccc1)NC(=O)c1cnccn1)B(O)O [Bortezomib] (partner 0.002 µM)
In short, it runs like this:
as §1

Compound in experiment [3]: Nc1nc(Nc2ccc3c(c2)CC[C@@H](N2CCCC2)CC3)nn1-c1cc2c(nn1)-c1ccccc1CCC2 [Bemcentinib] + CC(C)C[C@H](NC(=O)[C@H](Cc1ccccc1)NC(=O)c1cnccn1)B(O)O [Bortezomib] (partner 0.002 µM)
In short, it runs like this:
as §1

Compound in experiment [4]: Nc1nc(Nc2ccc3c(c2)CC[C@@H](N2CCCC2)CC3)nn1-c1cc2c(nn1)-c1ccccc1CCC2 [Bemcentinib] + CS(=O)(=O)CCNCc1ccc(-c2ccc3ncnc(Nc4ccc(OCc5cccc(F)c5)c(Cl)c4)c3c2)o1 [Lapatinib] (partner 2 µM)
In outline:
as §1

The text below walks through data of the supplement of paper PMC10307832.

Turning to NCI-H650, the relative viability in experiment [1] (first compound 3.162 µM) was 0.439; in experiment [1] (first compound 10 µM), 0.395; in experiment [1] (first compound 31.62 µM), 0.305; in experiment [1] (first compound 100 µM), 0.399; in experiment [2] (first compound 0.005 µM) it was 0.739; in experiment [2] (first compound 0.01581 µM), 0.944. The relative viability came to 0.683 in experiment [2] (first compound 0.05 µM); 0.7 in experiment [2] (first compound 0.1581 µM); 0.816 in experiment [2] (first compound 0.5 µM); 0.68 in experiment [3] (first compound 0.04 µM); 0.855 in experiment [3] (first compound 0.1265 µM); 0.92 in experiment [3] (first compound 0.4 µM). Besides, the relative viability is 0.628 in experiment [3] (first compound 1.265 µM); 0.701 in experiment [3] (first compound 4 µM); 0.885 in experiment [4] (first compound 0.04 µM); 1.02 in experiment [4] (first compound 0.1265 µM); 0.906 in experiment [4] (first compound 0.4 µM); 0.759 in experiment [4] (first compound 1.265 µM). The relative viability in experiment [4] (first compound 4 µM) was determined as 0.775.
